Measured values as given in patent US7767682B2, “Medicaments” (GlaxoSmithKline LLC, priority 2005, dated 2010).
Entries after “also recorded” stand apart in the source; their conditions may differ. Structures can show the parent of a compound that is named as a salt. Bridge positions count the residues as written; N and C are the ends. Ends that are not written are not given here.

Key:
MDCK-C7 cells [1] = test: Short-circuit current (SCC) ion transport response to ADH in MDCK-C7 monolayers in Ussing chambers; assay type: cell-based, canine; settings: for initial rapid transient SCC response to ADH: 18 hrs pre-incubation before ADH
Experimental: The Madin-Darby canine kidney (MDCK) cell line expresses many characteristics of the renal collecting duct. The MDCK-C7 subclone forms a high-resistance, hormone-responsive model of the principal cells, which are found in distal sections of the renal tubule. The electrophysiological technique of short-circuit current measurement has been used to examine the response to antidiuretic hormone (ADH) in the MDCK-C7 clone.
The MDCK-C7cells were grown in a 37° C. humidified incubator with a 5% CO2 and […] gas mixture. Initially the cells were grown in 75 cm^2 flasks and fed with Minimal Media with Earle's salts, non-essential amino acids and L-glutamine (MEM; Gibco/BRL, Grand Island, N.Y., USA) supplemented with 10% fetal bovine serum (Sigma), 26 mM NaHCO3 and adjusted to pH 7.0. The confluent cells were subcultured by trypsinization and the cells were seeded (5.4×10^4 cell/cm^2) onto Nucleopore polycarbonate membranes forming the bottom of Transwell chambers (Costar, Cambridge, Mass., USA). The Transwell chambers were placed in specially designed tissue culture plates to form a two compartment system in which media are added to both apical and basolateral surfaces. The media were aspirated and replaced three times per week. The cells were used between passages 73 and 96.
Nucleopore filters (4.7 cm^2) containing confluent MDCK-C7 cells (10-16 days) were removed from the Transwell chambers and clamped between the halves of an Ussing chamber (World Precision Instruments, Sarasota, Fla.). Each half of the chamber contained a tapered fluid compartment with openings for voltage electrodes (close to the epithelial membrane) and current electrodes (at the opposite end of the chamber). The fluid chamber was water jacketed to maintain constant temperature (37° C.). The cells were bathed in serum-free MEM. The media were circulated in the chambers by means of a 5%CO2/O2 gas lift. […] Transepithelial resistance was calculated by applying a 2-mV pulse across the epithelium and measuring the resultant deflection in SCC. Data from cultures were used only if they maintained a resistance >1000 W cm^2. Transepithelial resistance (an indication of cellular viability) was monitored throughout the entire duration of each electrophysiological experiment by pulsing the tissues with a 2000 μV pulse every 200 seconds. Resistance values were calculated from the resulting current deflections using Ohm's law.
The cultures were placed in the Ussing chambers and incubated under short-circuited conditions until a steady baseline transport was achieved (0.5-1 h). In the experiments to characterize the ADH-induced ion transport phenomena, the cultures were pre-incubated with the inhibitors 30 minutes prior to the addition of ADH. In the experiments with GI262570X, compound was added 18 hrs. prior to the addition of ADH. ADH was added to the serosal bathing media; amiloride was added to the apical media 30 min after ADH to determine the portion of the transport due to flux through the amiloride-sensitive Na^+ channel. The concentrations of effectors used were: ADH, 0.1 IU/ml; amiloride, 30 μM; NPPB, 500 μM; verapamil, 25 μM, and GI262570X (concentration range from 1 nM -1 μM). Each experiment was performed using matched cultures grown in parallel. The data are presented as means±SE with n indicating the number of different experiments.

MDCK-C7 cells [2] = test: Transepithelial resistance of MDCK-C7 monolayers (indication of cellular viability); assay type: cell-based, canine; settings: at concentrations >10 μM; SCC response not measurable
Experimental: Nucleopore filters (4.7 cm^2) containing confluent MDCK-C7 cells (10-16 days) were removed from the Transwell chambers and clamped between the halves of an Ussing chamber (World Precision Instruments, Sarasota, Fla.). Each half of the chamber contained a tapered fluid compartment with openings for voltage electrodes (close to the epithelial membrane) and current electrodes (at the opposite end of the chamber). The fluid chamber was water jacketed to maintain constant temperature (37° C.). The cells were bathed in serum-free MEM. The media were circulated in the chambers by means of a 5%CO2/O2 gas lift. The electrodes were connected to a voltage-clamp amplifier (Current Voltage Clamp; World Precision Instruments) for measurement of net ion flux as monitored under short-circuit conditions (SCC; short circuit current) [Ussing, 1951]. Transepithelial resistance was calculated by applying a 2-mV pulse across the epithelium and measuring the resultant deflection in SCC. Data from cultures were used only if they maintained a resistance >1000 W cm^2. Transepithelial resistance (an indication of cellular viability) was monitored throughout the entire duration of each electrophysiological experiment by pulsing the tissues with a 2000 μV pulse every 200 seconds. Resistance values were calculated from the resulting current deflections using Ohm's law.

## O=C(O)c1cc([N+](=O)[O-])ccc1NCCCc1ccccc1 [NPPB, reference compound]
MDCK-C7 cells [1]; 500 μM, added to apical bathing medium, 30 minutes before ADH
  rapid transient ion transport response to ADH: significantly diminish

## N=C(N)NC(=O)c1nc(Cl)c(N)nc1N [amiloride, amiloride hydrochloride, reference compound]
MDCK-C7 cells [1]; amiloride 30 μM, apical media, hydrochloride
  later sustained SCC (ion transport) response to ADH: only blocks the later sustained SCC response; also recorded: decrease

## [arg]-vasopressin (CYFQNCPRG-NH2; disulfide 1-6; UniProt P01185 20-28, looked up) [ADH, antidiuretic hormone used to stimulate ion transport, reference compound]
MDCK-C7 cells [1]; 100 mU/ml, serosal bathing media, multiphasic response
  short circuit current response on stimulation: rapid increase in short circuit current

## Cc1oc(-c2ccccc2)nc1CCOc1ccc(C[C@H](Nc2ccccc2C(=O)c2ccccc2)C(=O)O)cc1 [GI262570X, N-(2-benzoylphenyl)-O-[2-(5-methyl-2-phenyl-4-oxazolyl)ethyl]-L -tyrosine]
MDCK-C7 cells [1]; 100 nM or 1 μM, 18 hrs pre-incubation
  effects on the other phases of the SCC response to ADH: no significant effects
MDCK-C7 cells [1]; 100 nM, n=4, p<0.05 vs controls
  initial rapid transient SCC response to ADH: significantly attenuated
MDCK-C7 cells [1]; 1 μM, n=4, p<0.01 vs controls
  initial rapid transient SCC response to ADH: significantly attenuated
MDCK-C7 cells [1]; -10 to 0 minutes, before ADH, 18 hrs pre-incubation
  effect on baseline SCC: no compound-related effect
MDCK-C7 cells [1]; MDCK-C7 cells, summary statement
  CFTR-mediated anion secretion in response to ADH stimulation: decreased
MDCK-C7 cells [1]; over the concentration range of 1 nM - 1 μM
  initial rapid transient response to ADH: inhibited
MDCK-C7 cells [2]
  cellular resistance of the monolayers: < 500 ohm cm^2
